Structures are written as SMILES. Bridge positions count the residues as written; N and C are the ends. Square brackets hold non-standard residues; d marks the D form. Peptide text beside a SMILES is read from it. * marks the point of attachment. ξ: configuration not given here. Phe(4-CONH2) = NC(=O)c1ccc(C[C@H](N)C(=O)O)cc1; Phe(4-COOH) = N[C@@H](Cc1ccc(C(=O)O)cc1)C(=O)O; Bip = N[C@@H](Cc1ccc(-c2ccccc2)cc1)C(=O)O; Phe(3-Me) = Cc1cccc(C[C@H](N)C(=O)O)c1; Phe(4-F) = N[C@@H](Cc1ccc(F)cc1)C(=O)O; Val(3-OH) = CC(C)(O)[C@H](N)C(=O)O; 4Pal = N[C@@H](Cc1ccncc1)C(=O)O; Cha = N[C@@H](CC1CCCCC1)C(=O)O; Ile(3ξ) = CCC(C)[C@H](N)C(=O)O; Thr(3ξ) = CC(O)[C@H](N)C(=O)O; Carboxymethyl = O=C(O)C*; Nle = CCCC[C@H](N)C(=O)O; Orn = NCCC[C@H](N)C(=O)O; Aun = NCCCCCCCCCCC(=O)O; Dab = NCC[C@H](N)C(=O)O; Nva = CCC[C@H](N)C(=O)O; Abu = CC[C@H](N)C(=O)O; AEEA = NCCOCCOCC(=O)O

The test deals with T1, PD-1/PD-L1 interaction (PE-labeled human PD-L1-Ig binding to Jurkat cell line over-expressing human PD-1) (Homo sapiens, UniProt Q15116).
T1 construct: expressed in transfected cells; host or cells: Jurkat
T1 sequence (Q15116 25-288): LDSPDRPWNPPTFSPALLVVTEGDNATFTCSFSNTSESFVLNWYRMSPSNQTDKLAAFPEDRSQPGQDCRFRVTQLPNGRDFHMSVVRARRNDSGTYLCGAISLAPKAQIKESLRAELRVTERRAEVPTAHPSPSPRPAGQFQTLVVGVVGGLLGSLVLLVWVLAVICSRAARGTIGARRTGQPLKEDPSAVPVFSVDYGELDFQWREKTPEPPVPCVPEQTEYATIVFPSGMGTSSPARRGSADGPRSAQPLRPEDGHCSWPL
Kind of test: Jurkat-PD-1 Cell Binding High-Content Screening Assay (CBA). It counts as cell-based. The note with it: Jurkat cell line over-expressing human PD-1; PE-labeled PD-L1-Ig 20 nM final; read-out: Jurkat hPD1-PDL1 IC50. The essentials: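 Binding of fluorescent PD-L1-Ig (20 nM final) to Jurkat-PD-1 cells was measured by automated imaging after 1 h, following a 2 h compound pre-treatment at 37° C.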
Regarding `Cc1cccc(C[C@@H]2NC(=O)[C@H](CC(=O)O)NC(=O)[C@H](Cc3ccc(C(=O)O)cc3)NC(=O)[C@H](Cc3ccncc3)NC(=O)CSC[C@@H](C(=O)N[C@@H](CCN)C(=O)NCCOCCOCC(=O)NCCCCCCCCCCC(=O)O)NC(=O)[C@H](CO)NC(=O)[C@H](C(C)(C)O)NC(=O)[C@H](CC3CCCCC3)NC(=O)[C@H](CCN)NC(=O)[C@@H](CC(C)C)NC(=O)[C@H](CCCN)NC(=O)[C@H](CCC(N)=O)NC(=O)[C@H](Cc3ccc(-c4ccccc4)cc3)NC(=O)[C@H](Cc3ccc(C(N)=O)cc3)NC2=O)c1` [Compound 3778] ({CH2CO}-[4Pal][Phe(4-COOH)]D[Phe(3-Me)][Phe(4-CONH2)][Bip]Q[Orn][dL][Dab][Cha][Val(3-OH)]SC[Dab][AEEA][Aun]-OH; thioether N-14), the IC50 (usually the concentration needed to halve the response being measured) is 26.6 nM.

For the compound `CC[C@@H]1NC(=O)CSC[C@@H](C(=O)N[C@@H](CCN)C(=O)NCCCCCCCCCCC(=O)O)NC(=O)[C@H](CCC(=O)O)NC(=O)[C@H](C(C)(C)O)NC(=O)[C@H](CC2CCCCC2)NC(=O)[C@H](CCN)NC(=O)[C@@H](CC(C)C)NC(=O)[C@H](CCCN)NC(=O)[C@H](Cc2ccc(OCC(=O)O)cc2)NC(=O)[C@H](Cc2ccc(-c3ccccc3)cc2)NC(=O)[C@H](Cc2ccc(OCC(=O)O)cc2)NC(=O)[C@H](Cc2cccc(C)c2)NC(=O)[C@H](CC(=O)O)NC(=O)[C@H](Cc2ccc(OCC(=O)O)cc2)NC1=O` [Compound 3794] ({CH2CO}-[Abu]Y(Carboxymethyl)D[Phe(3-Me)]Y(Carboxymethyl)[Bip]Y(Carboxymethyl)[Orn][dL][Dab][Cha][Val(3-OH)]EC[Dab][Aun]-OH; thioether N-14), the IC50 was 3.8 nM.

Regarding `CCC[C@@H]1NC(=O)CSC[C@@H](C(=O)N[C@@H](CCN)C(=O)NCCCCCCCCCCC(=O)O)NC(=O)[C@H](CCC(=O)O)NC(=O)[C@H](C(C)(C)O)NC(=O)[C@H](CC2CCCCC2)NC(=O)[C@H](CCN)NC(=O)[C@@H](CC(C)C)NC(=O)[C@H](CCCN)NC(=O)[C@H](Cc2ccc(OCC(=O)O)cc2)NC(=O)[C@H](Cc2ccc(-c3ccccc3)cc2)NC(=O)[C@H](Cc2ccc(OCC(=O)O)cc2)NC(=O)[C@H](Cc2cccc(C)c2)NC(=O)[C@H](CC(=O)O)NC(=O)[C@H](Cc2ccc(OCC(=O)O)cc2)NC1=O` [Compound 3795] ({CH2CO}-[Nva]Y(Carboxymethyl)D[Phe(3-Me)]Y(Carboxymethyl)[Bip]Y(Carboxymethyl)[Orn][dL][Dab][Cha][Val(3-OH)]EC[Dab][Aun]-OH; thioether N-14), the IC50 amounted to 5.8 nM.

For `CCCC[C@@H]1NC(=O)CSC[C@@H](C(=O)N[C@@H](CCN)C(=O)NCCCCCCCCCCC(=O)O)NC(=O)[C@H](CCC(=O)O)NC(=O)[C@H](C(C)(C)O)NC(=O)[C@H](CC2CCCCC2)NC(=O)[C@H](CCN)NC(=O)[C@@H](CC(C)C)NC(=O)[C@H](CCCN)NC(=O)[C@H](Cc2ccc(OCC(=O)O)cc2)NC(=O)[C@H](Cc2ccc(-c3ccccc3)cc2)NC(=O)[C@H](Cc2ccc(OCC(=O)O)cc2)NC(=O)[C@H](Cc2cccc(C)c2)NC(=O)[C@H](CC(=O)O)NC(=O)[C@H](Cc2ccc(OCC(=O)O)cc2)NC1=O` [Compound 3796] ({CH2CO}-[Nle]Y(Carboxymethyl)D[Phe(3-Me)]Y(Carboxymethyl)[Bip]Y(Carboxymethyl)[Orn][dL][Dab][Cha][Val(3-OH)]EC[Dab][Aun]-OH; thioether N-14), the IC50 is 1.9 nM.

As for `Cc1cccc(C[C@@H]2NC(=O)[C@H](CC(=O)O)NC(=O)[C@H](Cc3ccc(OCC(=O)O)cc3)NC(=O)[C@H](CCN)NC(=O)CSC[C@@H](C(=O)N[C@@H](CCN)C(=O)NCCOCCOCC(=O)NCCCCCCCCCCC(=O)O)NC(=O)[C@H](CCC(=O)O)NC(=O)[C@H](C(C)O)NC(=O)[C@H](CC3CCCCC3)NC(=O)[C@H](CCN)NC(=O)[C@@H](CC(C)C)NC(=O)[C@H](CCCN)NC(=O)[C@H](Cc3ccc(OCC(=O)O)cc3)NC(=O)[C@H](Cc3ccc(-c4ccccc4)cc3)NC(=O)[C@H](Cc3ccc(OCC(=O)O)cc3)NC2=O)c1` (stereo partly drawn) [Compound 3797] ({CH2CO}-[Dab]Y(Carboxymethyl)D[Phe(3-Me)]Y(Carboxymethyl)[Bip]Y(Carboxymethyl)[Orn][dL][Dab][Cha][Thr(3ξ)]EC[Dab][AEEA][Aun]-OH; thioether N-14), the IC50 was 2.1 nM.

As for `Cc1cccc(C[C@@H]2NC(=O)[C@H](CC(=O)O)NC(=O)[C@H](Cc3ccc(OCC(=O)O)cc3)NC(=O)[C@H](Cc3ccc(F)cc3)NC(=O)CSC[C@@H](C(=O)N[C@@H](CCN)C(=O)NCCCCCCCCCCC(=O)O)NC(=O)[C@H](Cc3cnc[nH]3)NC(=O)[C@H](C(C)(C)O)NC(=O)[C@H](CC3CCCCC3)NC(=O)[C@H](CCN)NC(=O)[C@@H](CC(C)C)NC(=O)[C@H](CCCN)NC(=O)[C@H](Cc3ccc(OCC(=O)O)cc3)NC(=O)[C@H](Cc3ccc(-c4ccccc4)cc3)NC(=O)[C@H](Cc3ccc(OCC(=O)O)cc3)NC2=O)c1` [Compound 3798] ({CH2CO}-[Phe(4-F)]Y(Carboxymethyl)D[Phe(3-Me)]Y(Carboxymethyl)[Bip]Y(Carboxymethyl)[Orn][dL][Dab][Cha][Val(3-OH)]HC[Dab][Aun]-OH; thioether N-14), the IC50 was 28.4 nM.

In the case of `Cc1cccc(C[C@@H]2NC(=O)[C@H](CC(=O)O)NC(=O)[C@H](Cc3ccc(OCC(=O)O)cc3)NC(=O)[C@H](Cc3ccc(F)cc3)NC(=O)CSC[C@@H](C(=O)N[C@@H](CCN)C(=O)NCCOCCOCC(=O)NCCCCCCCCCCC(=O)O)NC(=O)[C@H](CC(=O)O)NC(=O)[C@H](C(C)C)NC(=O)[C@H](CC3CCCCC3)NC(=O)[C@H](CCN)NC(=O)[C@@H](CC(C)C)NC(=O)[C@H](CCCN)NC(=O)[C@H](Cc3ccc(OCC(=O)O)cc3)NC(=O)[C@H](Cc3ccc(-c4ccccc4)cc3)NC(=O)[C@H](Cc3ccc(OCC(=O)O)cc3)NC2=O)c1` [Compound 3799] ({CH2CO}-[Phe(4-F)]Y(Carboxymethyl)D[Phe(3-Me)]Y(Carboxymethyl)[Bip]Y(Carboxymethyl)[Orn][dL][Dab][Cha]VDC[Dab][AEEA][Aun]-OH; thioether N-14), the IC50 was 11.1 nM.

For the compound `Cc1cccc(C[C@@H]2NC(=O)[C@H](CC(=O)O)NC(=O)[C@H](Cc3ccc(OCC(=O)O)cc3)NC(=O)[C@H](Cc3ccc(F)cc3)NC(=O)CSC[C@@H](C(=O)N[C@@H](CCN)C(=O)NCCOCCOCC(=O)NCCCCCCCCCCC(=O)O)NC(=O)[C@H](CCC(=O)O)NC(=O)[C@H](C(C)C)NC(=O)[C@H](CC3CCCCC3)NC(=O)[C@H](CCN)NC(=O)[C@@H](CC(C)C)NC(=O)[C@H](CCCN)NC(=O)[C@H](Cc3ccc(OCC(=O)O)cc3)NC(=O)[C@H](Cc3ccc(-c4ccccc4)cc3)NC(=O)[C@H](Cc3ccc(OCC(=O)O)cc3)NC2=O)c1` [Compound 3800] ({CH2CO}-[Phe(4-F)]Y(Carboxymethyl)D[Phe(3-Me)]Y(Carboxymethyl)[Bip]Y(Carboxymethyl)[Orn][dL][Dab][Cha]VEC[Dab][AEEA][Aun]-OH; thioether N-14), the IC50 was 12.1 nM.

Turning to `Cc1cccc(C[C@@H]2NC(=O)[C@H](CC(=O)O)NC(=O)[C@H](Cc3ccc(OCC(=O)O)cc3)NC(=O)[C@H](CCN)NC(=O)CSC[C@@H](C(=O)N[C@@H](CCN)C(=O)NCCOCCOCC(=O)NCCCCCCCCCCC(=O)O)NC(=O)[C@H](CC(=O)O)NC(=O)[C@H](C(C)C)NC(=O)[C@H](CC3CCCCC3)NC(=O)[C@H](CCN)NC(=O)[C@@H](CC(C)C)NC(=O)[C@H](CCCN)NC(=O)[C@H](Cc3ccc(OCC(=O)O)cc3)NC(=O)[C@H](Cc3ccc(-c4ccccc4)cc3)NC(=O)[C@H](Cc3ccc(OCC(=O)O)cc3)NC2=O)c1` [Compound 3801] ({CH2CO}-[Dab]Y(Carboxymethyl)D[Phe(3-Me)]Y(Carboxymethyl)[Bip]Y(Carboxymethyl)[Orn][dL][Dab][Cha]VDC[Dab][AEEA][Aun]-OH; thioether N-14), the IC50 is 2.5 nM.

As for `CCC(C)[C@@H]1NC(=O)[C@H](Cc2ccc(-c3ccccc3)cc2)NC(=O)[C@H](C(C)C)NC(=O)[C@H](Cc2c[nH]c3ccccc23)NC(=O)[C@H](CC(=O)O)NC(=O)[C@H](Cc2ccc(OCC(=O)O)cc2)NC(=O)[C@H](Cc2ccc(F)cc2)NC(=O)CSC[C@@H](C(=O)N[C@@H](CCN)C(=O)NCCOCCOCC(=O)NCCCCCCCCCCC(=O)O)NC(=O)[C@H](CC(=O)O)NC(=O)[C@H](C(C)O)NC(=O)[C@H](CC2CCCCC2)NC(=O)[C@H](CCN)NC(=O)[C@@H](CC(C)C)NC(=O)[C@H](CCCN)NC1=O` (stereo partly drawn) [Compound 3802] ({CH2CO}-[Phe(4-F)]Y(Carboxymethyl)DWV[Bip][Ile(3ξ)][Orn][dL][Dab][Cha][Thr(3ξ)]DC[Dab][AEEA][Aun]-OH; thioether N-14), the IC50 was determined as 36.6 nM.

Consider `CCC[C@@H]1NC(=O)CSC[C@@H](C(=O)N[C@@H](CCN)C(=O)NCCOCCOCC(=O)NCCCCCCCCCCC(=O)O)NC(=O)[C@H](Cc2cnc[nH]2)NC(=O)[C@H](C(C)C)NC(=O)[C@H](CC2CCCCC2)NC(=O)[C@H](CCN)NC(=O)[C@@H](CC(C)C)NC(=O)[C@H](CCCN)NC(=O)[C@H](Cc2ccc(OCC(=O)O)cc2)NC(=O)[C@H](Cc2ccc(-c3ccccc3)cc2)NC(=O)[C@H](Cc2ccc(OCC(=O)O)cc2)NC(=O)[C@H](Cc2cccc(C)c2)NC(=O)[C@H](CC(=O)O)NC(=O)[C@H](Cc2ccc(OCC(=O)O)cc2)NC1=O` [Compound 3803] ({CH2CO}-[Nva]Y(Carboxymethyl)D[Phe(3-Me)]Y(Carboxymethyl)[Bip]Y(Carboxymethyl)[Orn][dL][Dab][Cha]VHC[Dab][AEEA][Aun]-OH; thioether N-14), for which the IC50 came to 2.7 nM.

`CCC[C@@H]1NC(=O)CSC[C@@H](C(=O)N[C@@H](CCN)C(=O)NCCOCCOCC(=O)NCCCCCCCCCCC(=O)O)NC(=O)[C@H](CC(=O)O)NC(=O)[C@H](C(C)C)NC(=O)[C@H](CC2CCCCC2)NC(=O)[C@H](CCN)NC(=O)[C@@H](CC(C)C)NC(=O)[C@H](CCCN)NC(=O)[C@H](Cc2ccc(OCC(=O)O)cc2)NC(=O)[C@H](Cc2ccc(-c3ccccc3)cc2)NC(=O)[C@H](Cc2ccc(OCC(=O)O)cc2)NC(=O)[C@H](Cc2cccc(C)c2)NC(=O)[C@H](CC(=O)O)NC(=O)[C@H](Cc2ccc(OCC(=O)O)cc2)NC1=O` [Compound 3804] ({CH2CO}-[Nva]Y(Carboxymethyl)D[Phe(3-Me)]Y(Carboxymethyl)[Bip]Y(Carboxymethyl)[Orn][dL][Dab][Cha]VDC[Dab][AEEA][Aun]-OH; thioether N-14): the IC50 stood at 0.2 nM.

Values taken from US20260022142A1, “MACROCYCLIC IMMUNOMODULATORS” (Bristol-Myers Squibb Company, priority 2022, published 2026).
